Patent US20130150350A1, “Derivatives of 1-Phenyl-1,5-Dihydro-Benzo[B] [1,4]Diazepine-2,4-Dione as Inhibitors of HIV Replication” (BOEHRINGER INGELHEIM INTERNATIONAL GMBH, priority 2010, published 2013)
Read-outs that look alike come from different tables or passages of the source.

How the values were obtained:
[1] = molecular target: T1, HIV-1NL4-3 CA-NC protein (SEQ ID NO: 2) (Human immunodeficiency virus type 1 group M subtype B, UniProt P12493, G226D); assay: Immobilized capsid assembly assay (CAA); assay type: biochemical
T1 construct: HIV-1NL4-3 CA-NC, Gag residues 133-432; initiator Met (start codon introduced by PCR primer) (N); made in house; host or cells: E. coli BL21(DE3), pET-11a
Source text: (§1) SEQ ID NO: 1 is a nucleic acid of 900 base pairs encoding HIV-1NL4-3 CA-NC, Gag residues 133-432, having the CA G94D mutation (SEQ ID NO: 2). SEQ ID NO: 1, is transferred to pET-11a expression vector (Novagen™) by PCR amplification using primers that introduce an NdeI site and a start codon at the 5′-end and a BamHI site and a stop codon at the 3′-end. Resistance mutations in CA were identified by passage of the HIV-1 virus in the presence of compounds of the invention, namely V27A/I, K30R, S33G, V36T, T58I, G61E, G208A/R, E213G, K30R/T58I, K30R/G208R, V36T/G208R, S33G/T58I, S33G/G208R and T58I/G208R, all numbered with reference to SEQ ID NO: 2,. These resistance mutations may be introduced in the expression vector using the QuikChange® II Site-Directed Mutagenesis Kit (Stratagene) according to the manufacturer's instructions. SEQ ID NOS: 2 is expressed in the BL21(DE3) E. coli cells (Novagen™). Briefly, LB media is inoculated with overnight pre-cultures and grown at 37° C. until mid log-phase (Abs600 ˜0.6), protein expression is induced by addition of 0.5-1 mM isopropyl-β,D-thiogalactopyranoside (IPTG) and carried out for 4 to 6 hours at 30° C. Cells are harvested by centrifugation and pellets are stored at −80° C. until purification.
(§2) Purification of CA-NC (SEQ ID NO: 2) is as follows: 5 to 10 g of cell paste are lysed by sonication in 40 ml of Buffer A [20 mM Tris pH 7.5; 1 μM ZnCl2; 10 mM β-mercaptoethanol] supplemented with 0.5M NaCl and Complete EDTA-free® protease inhibitors tablets (Roche). Nucleic acids and cell debris are removed by adding 0.11 volumes of 0.2 M ammonium sulfate and an equivalent volume of 10% poly-(ethyleneimine) pH 8.0, stirring the sample for 20 minutes at 4° C., followed by centrifugation at 30 000×g for 20 minutes. SEQ ID NO: 2 is recovered from the supernatant by adding 0.35 volumes of saturated ammonium sulfate solution followed by centrifugation at 10 000×g for 15 minutes. The pellet is dissolved in 10 ml of Buffer A+0.1 M NaCl and dialyzed overnight in the same buffer but at 0.05 M NaCl (Dialysis Buffer). The sample is then cleared by centrifugation and passed on a 1-ml HiTrapTMSP HP column (GE Healthcare) pre-equilibrated with Dialysis Buffer. SEQ ID NO: 2 is eluted with Buffer A+0.5 M NaCl, fractions containing the protein are pooled; concentration determination is done by Abs280 using the calculated molar extinction coefficient (E=40220 M-1 cm-1).
Reacti-Bind Neutravidin Coated black 384-well plates (Pierce Cat#15402) are washed with 80 μl/well of Buffer A (50 mM Tris pH 8.0; 350 mM NaCl; 10 μM ZnSO4; 0.0025% CHAPS (w/v); 50 μg/ml bovine serum albumin (BSA); 1 mM DTT). Immobilization of a 5′-end biotin labeled (TG)25 oligonucleotide (Integrated DNA Technology Inc.) is carried out by adding 50 μl/well of a 25 nM solution of oligonucleotide in Buffer A+5 mg/ml of BSA (Sigma™) and incubating overnight. Unbound material is removed by two 80 μl/well washes with Buffer A. Assembly reactions are performed in 60 μl/well reactions comprising test compound, 100 nM of 5′-end fluorescein labeled (TG)25 oligonucleotide (Integrated DNA Technology Inc.) and 2 μM of CA-NC protein (SEQ ID NO: 2), using Buffer A+1% DMSO. Assembly reactions are incubated for 2 hours at room temperature and non-immobilized material is removed by two successive 80 μl/well washes with Buffer A. Finally, 80 μl/well of Buffer A+0.1% sodium dodecyl sulfate (SDS) is added and incubated for 15 minutes prior to quantification of captured fluorescence on a Victor2 plate reader (PerkinElmer Life Sciences) equipped with fluorescein excitation and emission filters using the standard manufacturer's settings for fluorescein fluorescence. The amount of captured fluorescence is considered to be proportional to the level of assembly. The IC50 values for each compound are generated by fitting inhibition curves from ten-point dilution series to the following equation: […]

[2] = molecular target: T2, assembled HIV-1 capsid complexes (CA-NC protein, SEQ ID NO: 2) (Human immunodeficiency virus type 1 group M subtype B, UniProt P12493, G226D); assay: Capsid disassembly assay (CDA); assay type: biochemical
T2 construct: HIV-1NL4-3 CA-NC, Gag residues 133-432; initiator Met (start codon introduced by PCR primer) (N); made in house; host or cells: E. coli BL21(DE3), pET-11a
Source text: The GAG polyprotein is the major structural protein required for HIV viral particle assembly. During the maturation process, Gag is cleaved by the viral protease and releases its four major proteins, matrix (MA), capsid (CA), nucleocapside (NC) and p6, as well as two spacer peptides termed SP1 and SP2. This triggers profound morphological changes to the viral particle as CA will reassemble to form the viral core, a structure that is essential for viral infectivity.
as §1, §2
Reacti-Bind Neutravidin Coated black 384-well plates (Pierce Cat#15402) are washed with 80 μl/well of Buffer A (50 mM Tris pH 8.0; 350 mM NaCl; 10 μM ZnSO4; 0.0025% CHAPS (w/v); 50 μg/ml BSA; 1 mM DTT). Immobilization of a 5′-end biotin labeled (TG)25 oligonucleotide (Integrated DNA Technology Inc.) is carried out by adding 50 μl/well of a 25 nM solution of oligonucleotide in Buffer A+5 mg/ml BSA and incubating overnight. Unbound material is removed by two 80 μl/well washes with Buffer A. Assembly reactions are performed in 60 μl/well reactions comprising 100 nM of 5′-end fluorescein labeled (TG)25 oligonucleotide (Integrated DNA Technology Inc.) and 2 μM of CA-NC protein (SEQ ID NO: 2), using Buffer A. Assembly reactions are incubated for 2 hours at room temperature and non-immobilized material is removed by washing 80 μl/well with Buffer A. Test compounds, serially diluted in Buffer A+0.125% dimethyl sulfoxide (DMSO), are added to the wells (60 μl/well) and incubated at room temperature for 2 hours. […]

[3] = system: HIV-1 replication in C8166 LTRluc cells; assay: C8166 HIV-1 luciferase assay; assay type: cell-based; details: Human immunodeficiency virus 1, 72 h, inhibition of HIV-1 replication, moi 0.005, 3 days
Procedure: The assay used to measure inhibition of HIV replication is as described in WO 2004/050643, pages 73-75, herein incorporated by reference, with the following modifications:
Serial dilutions of HIV-1 inhibitors are prepared in complete media from DMSO stock solutions. Eleven serial dilutions of desired concentration are prepared in a 1 mL deep well titer plate (96 wells). The 12th well contains complete media with no inhibitor and serves as the positive control. All samples contain the same concentration of DMSO 0.1% DMSO). Inhibitor is added, to triplicate wells, of a 96 well tissue culture treated clear view black microtiter plate (Corning Costar catalogue #3904). The total volume per well is 200 μL of media containing the cells and inhibitor. The last row is reserved for uninfected C8166 LTRluc cells to serve as the background blank control and the first row is media alone.
Count C8166 LTRluc cells and place in a minimal volume of complete RPMI 1640 in a tissue culture flask (ex. 30×10^6 cells in 10 mL media/25 cm^2 flask). Infect cells with HIV-1 at a moi of 0.005. Incubate cells for 1.5 hours at 37° C. on a rotating rack in a 5% CO2 incubator. Resuspend cells in complete RPMI to give a final concentration of 25,000-cells/well. Add cells to wells of 96 well microtiter plate containing inhibitors. Add 25,000 uninfected C8166—LTRluc cells/well in 200 μL complete RPMI to last row for background control. Incubate cells at 37° C. in 5% CO2 incubator for 3 days.

[4] = concentration for 50% inhibition of capsid assembly, 2 μM CA-NC, 2 hours at room temperature, read-out: IC50 (μM) CAA
[5] = concentration for 50% disassembly of assembled complexes, 2 hours at room temperature, read-out: IC50 (μM) CDA

CCN1C(=O)C2(CCc3ccccc32)C(=O)N(c2ccccc2)c2cc(C(F)(F)F)ccc21 (racemic) [Compound 7001]
IC50 [1]: 0.73 µM
IC50 [2]: 0.46 µM
EC50 [3]: 1500 nM

CCN1C(=O)/C(=C/NCCOC)C(=O)N(c2ccccc2)c2cc(Cl)ccc21 [Compound 1004]
IC50 [1, 4]: 0.47 µM
IC50 [2, 5]: 0.38 µM
EC50 [3]: 12700 nM

COCCN/C=C1/C(=O)N(C)c2ccc(C(F)(F)F)cc2N(c2ccccc2)C1=O [Compound 1011]
IC50 [1]: 0.89 µM
IC50 [2]: 0.86 µM
EC50 [3]: 12000 nM

CCN1C(=O)C(c2ccccc2)C(=O)N(c2ccccc2)c2cc(C(F)(F)F)ccc21 (centres unmarked) [Compound 2002]
IC50 [1]: 0.73 µM
IC50 [2]: 0.48 µM
EC50 [3]: 2600 nM

CCN1C(=O)C(c2ccccc2)C(=O)N(c2cccs2)c2cc(C(F)(F)F)ccc21 (centres unmarked) [Compound 2003]
IC50 [1]: 0.81 µM
IC50 [2]: 0.39 µM
EC50 [3]: 2500 nM

CN1C(=O)C(c2ccc(O)cc2)C(=O)N(c2ccccc2)c2cc(C(F)(F)F)ccc21 (centres unmarked) [Compound 2009]
IC50 [1]: 0.91 µM
IC50 [2]: 0.14 µM
EC50 [3]: 900 nM

CCN1C(=O)C(c2ccc(CN3CCNCC3)cc2)C(=O)N(c2ccccc2)c2cc(C(F)(F)F)ccc21 (centres unmarked) [Compound 2018]
IC50 [1]: 0.52 µM
IC50 [2]: 0.28 µM
EC50 [3]: 800 nM

CCN1C(=O)C(c2cccc(-c3cccnc3)c2O)C(=O)N(c2ccccc2)c2cc(C(F)(F)F)ccc21 (centres unmarked) [Compound 2035]
IC50 [1]: 1.28 µM
EC50 [3]: 5800 nM

CCN1C(=O)C(c2cccnc2)C(=O)N(c2ccccc2)c2cc(C(F)(F)F)ccc21 (centres unmarked) [Compound 2076]
IC50 [1]: 1.6 µM
EC50 [3]: 4100 nM

CCN1C(=O)N(c2ccc(CO)cc2)C(=O)N(c2ccccc2)c2cc(C(F)(F)F)ccc21 [Compound 3027]
IC50 [2, 5]: 0.1 µM
EC50 [3]: 700 nM

CCN1C(=O)N(c2ccc(C(=O)O)cc2)C(=O)N(c2ccccc2)c2cc(C(F)(F)F)ccc21 [Compound 3034]
IC50 [2, 5]: 0.27 µM
EC50 [3]: 2600 nM

CCN1C(=O)N(c2ccc(C(=O)NC[C@@H]3CCCN3CC)cc2)C(=O)N(c2ccccc2)c2cc(C(F)(F)F)ccc21 [Compound 3055]
IC50 [2, 5]: 0.13 µM
EC50 [3]: 400 nM

CN1c2ccc(Cl)cc2N(c2ccccc2)C(=O)c2cn(C)nc21 [Compound 4002]
IC50 [1, 4]: 0.71 µM
EC50 [3]: 6900 nM

CN1c2ccc(Cl)cc2N(c2ccccc2)C(=O)c2c[nH]nc21 [Compound 4007]
IC50 [1, 4]: 0.31 µM
EC50 [3]: 7800 nM

CN1c2ccc(Cl)cc2N(c2ccccc2)C(=O)c2cn(Cc3ccncc3)nc21 [Compound 4032]
IC50 [1, 4]: 0.55 µM
EC50 [3]: 300 nM

CCN1c2ccc(Cl)cc2N(c2ccccc2)C(=O)c2c1ncn2C [Compound 5001]
IC50 [1, 4]: 0.36 µM
EC50 [3]: 1500 nM

CN1c2ccc(C(F)(F)F)cc2N(c2ccccc2)C(=O)c2c1ncn2C [Compound 5003]
IC50 [1, 4]: 0.26 µM
EC50 [3]: 5500 nM

CN1c2cccc(F)c2N(c2ccccc2)C(=O)c2c1ncn2C [Compound 5005]
IC50 [1, 4]: 0.32 µM
EC50 [3]: 400 nM

COCCNCc1ccc(Cn2cnc3c2C(=O)N(c2ccccc2)c2cc(Cl)ccc2N3C)cc1 [Compound 5026]
IC50 [1, 4]: 0.17 µM
EC50 [3]: 900 nM

CN1c2ccc(Cl)cc2N(c2ccccc2)C(=O)c2scnc21 [Compound 6001]
IC50 [1, 4]: 1 µM
EC50 [3]: 8100 nM

CCN1C(=O)C2(CCc3cc(-c4ccnn4C)ccc32)C(=O)N(c2ccccc2)c2cc(C(F)(F)F)ccc21 (centres unmarked) [Compound 7012]
IC50 [2]: 0.2 µM
EC50 [3]: 200 nM

CCN1C(=O)C2(CCc3c2ccc(-c2cncnc2)c3OC)C(=O)N(c2ccccc2)c2cc(C(F)(F)F)ccc21 (centres unmarked) [Compound 7030]
IC50 [2]: 0.17 µM
EC50 [3]: 600 nM

CCN1C(=O)C2(C=C(C)c3cc(O)ccc32)C(=O)N(c2ccccc2)c2cc(C(F)(F)F)ccc21 (centres unmarked) [Compound 7037]
IC50 [2]: 0.3 µM
EC50 [3]: 1000 nM
